Values joined by “and” are separate entries in the source; they are usually repeats but may differ in a detail not shown here. Equal values may be shown once.

The experiment concerns the target T1, PPAR delta (Homo sapiens, UniProt Q03181).
T1 sequence (Q03181 171-441 limits assumed): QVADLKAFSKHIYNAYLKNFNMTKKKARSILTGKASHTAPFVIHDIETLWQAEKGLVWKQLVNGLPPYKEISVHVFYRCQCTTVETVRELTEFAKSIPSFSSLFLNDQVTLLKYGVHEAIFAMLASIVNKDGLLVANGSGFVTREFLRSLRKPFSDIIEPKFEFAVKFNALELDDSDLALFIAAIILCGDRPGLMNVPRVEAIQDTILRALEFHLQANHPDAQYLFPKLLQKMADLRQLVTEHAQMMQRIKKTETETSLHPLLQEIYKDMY
Kind of experiment: Transfection assay for PPAR receptors (PPAR-Gal4 / Gal4-Luciferase reporter in HEK293 cells). The class given is cell-based. Particulars: HEK293 cells co-transfected with PPAR-Gal4 (δ) receptor and Gal4-Luciferase reporter, 24 hours; multiple EC50's = multiple measurements; Table 2. The method, then:
Transfection Assay Method for PPAR Receptors
HEK293 cells were grown in DMEM/F-12 Media supplemented with 10% FBS and glutamine (GIBCOBRL). The cells were co-transfected with DNA for PPAR-Gal4 (PPARα, γ or δ) receptor and Gal4-Luciferase Reporter using the DMRIE-C Reagent. On the following day, the medium was replaced with 5% Charcoal treated FBS growth medium. After six hours, cells were trypsinized and seeded at a density of 50,000 cell/well into 96 well plates and incubated overnight at 37° C. in a 5% CO2 incubator. Cells were then treated with test compounds or vehicle and incubated for 24 hours at 37° C. in a 5% CO2 incubator. Luciferase activity was assayed using the Steady-Glo Luciferase Assay Kit from Promega. […] Steady-Glo Luciferase Assay Kit was purchased from Promega Part# E254B.
A general note: Reporter assays use an easily measured gene product as a stand-in for the process of interest.
Take `Cc1cc(SCC(C)COc2ccc(C(F)(F)F)cc2)ccc1OCC(=O)O` (centres unmarked) [Compound 1, {2-Methyl-4-[2-methyl-3-(4-trifluoromethyl-phenoxy)-propylsulfanyl]-phenoxy}-acetic acid]: the EC50 (usually the midpoint of the concentration-response curve) was 9.2 nM and 5.6 nM.
The same measure for `CCC(COc1ccc(C(F)(F)F)cc1)CSc1ccc(OCC(=O)O)c(C)c1` (centres unmarked) [Compound 3, {2-Methyl-4-[2-(4-trifluoromethyl-phenoxymethyl)-butylsulfanyl]-phenoxy}-acetic acid]: 0.08 nM and 0.04 nM; for `CCC(COc1ccc(C(F)(F)F)cc1)CSc1ccc(OCC(=O)O)cc1` (centres unmarked) [Compound 4, {4-[2-(4-Trifluoromethyl-phenoxymethyl)-butylsulfanyl]-phenoxy}-acetic acid]: 29.6 nM.
Take `CCCCCC(COc1ccc(C(F)(F)F)cc1)CSc1ccc(OCC(=O)O)c(C)c1` (centres unmarked) [Compound 6, {2-Methyl-4-[2-(4-trifluoromethyl-phenoxymethyl)-heptylsulfanyl]-phenoxy}-acetic acid]: the EC50 was 3.3 nM (2×) and 3.7 nM.
For `Cc1cc(SCC(C)Oc2ccc(C(F)(F)F)cc2)ccc1OCC(=O)O` (centres unmarked) [Compound 7, {2-Methyl-4-[2-(4-trifluoromethyl-phenoxy)-propylsulfanyl]-phenoxy}-acetic acid], a half-maximal effect (EC50) was put at 211 nM.
Compound `Cc1ccc(OCCCSc2ccc(OCC(=O)O)c(C)c2)cc1` [Compound 8] returned a half-maximal effective concentration (EC50) of 215 nM.
Turning to `CCC(COc1ccc(C(F)(F)F)cc1)CSc1ccc(CC(=O)O)cc1Cl` (centres unmarked) [Compound 9, {3-Chloro-4-[2-(4-trifluoromethyl-phenoxymethyl)-butylsulfanyl]-phenyl}-acetic acid], the EC50 is 16.6 nM and 18.5 nM.
In the case of `Cc1cc(SCC(CC#N)COc2ccc(C(F)(F)F)cc2)ccc1OCC(=O)O` (centres unmarked) [Compound 10, {4-[3-Cyano-2-(4-trifluoromethyl-phenoxymethyl)-propylsulfanyl]-2-methyl-phenoxy}-acetic acid], the half-maximal effective concentration (EC50) was 29 nM and 56 nM.
The compound `Cc1cc(SCC(CCC#N)COc2ccc(C(F)(F)F)cc2)ccc1OCC(=O)O` (centres unmarked) [Compound 11, {4-[4-Cyano-2-(4-trifluoromethyl-phenoxymethyl)-butylsulfanyl]-2-methyl-phenoxy}-acetic acid] yielded an EC50 of 5.7 nM. In other words, the single-digit nanomolar range.
Take `Cc1cc(SCC(C/C=C/C#N)COc2ccc(C(F)(F)F)cc2)ccc1OCC(=O)O` (centres unmarked) [Compound 12, {4-[5-Cyano-2-(4-trifluoromethyl-phenoxymethyl)-pent-4-enylsulfanyl]-2-methyl-phenoxy}-acetic acid]: the EC50 was 19.9 nM.
Compound `Cc1cc(SCC(O)COc2ccc(C(F)(F)F)cc2)ccc1OCC(=O)O` (centres unmarked) [Compound 13] came in with a half-maximal effective concentration (EC50) of 79 nM.
Take `COC(COc1ccc(C(F)(F)F)cc1)CSc1ccc(OCC(=O)O)c(C)c1` (centres unmarked) [Compound 14, {4-[2-Methoxy-3-(4-trifluoromethyl-phenoxy)-propylsulfanyl]-2-methyl-phenoxy}-acetic acid]: the 50% effective concentration (EC50) is 16.2 nM and 21.5 nM.
As for `CCO[C@H](COc1ccc(C(F)(F)F)cc1)CSc1ccc(OCC(=O)O)c(C)c1` [Compound 15, (R)-{4-[2-Ethoxy-3-(4-trifluoromethyl-phenoxy)-propylsulfanyl]-2-methyl-phenoxy}-acetic acid], the concentration for a half-maximal effect (EC50) was 0.76 nM and 0.56 nM and 0.88 nM and 3.4 nM and 5 nM and 1.1 nM.
The same measure for `CCO[C@@H](COc1ccc(C(F)(F)F)cc1)CSc1ccc(OCC(=O)O)c(C)c1` [Compound 16, (S)-{4-[2-Ethoxy-3-(4-trifluoromethyl-phenoxy)-propylsulfanyl]-2-methyl-phenoxy}-acetic acid]: 22.4 nM and 27.5 nM.
The value for `CCOC(COc1ccc(C(F)(F)F)cc1)CSc1ccc(OCC(=O)O)c(C)c1` (centres unmarked) [Compound 17, {4-[2-Ethoxy-3-(4-trifluoromethyl-phenoxy)-propylsulfanyl]-2-methyl-phenoxy}-acetic acid] was 4.2 nM and 3.2 nM and 1.5 nM and 4.5 nM and 0.69 nM and 2.7 nM; that for `CCCOC(COc1ccc(C(F)(F)F)cc1)CSc1ccc(OCC(=O)O)c(C)c1` (centres unmarked) [Compound 18, {2-Methyl-4-[2-propoxy-3-(4-trifluoromethyl-phenoxy)-propylsulfanyl]-phenoxy}-acetic acid] was 4.3 nM; that for `CCCCOC(COc1ccc(C(F)(F)F)cc1)CSc1ccc(OCC(=O)O)c(C)c1` (centres unmarked) [Compound 19, {4-[2-Butoxy-3-(4-trifluoromethyl-phenoxy)-propylsulfanyl]-2-methyl-phenoxy}-acetic acid] was 7.5 nM and 6.5 nM.
The value for `C=CCOC(COc1ccc(C(F)(F)F)cc1)CSc1ccc(OCC(=O)O)c(C)c1` (centres unmarked) [Compound 21, {4-[2-Allyloxy-3-(4-trifluoromethyl-phenoxy)-propylsulfanyl]-2-methyl-phenoxy}-acetic acid] was 3.7 nM and 4.2 nM.
With `COCO[C@@H](COc1ccc(C(F)(F)F)cc1)CSc1ccc(OCC(=O)O)c(C)c1` [Compound 23, (S)-{4-[2-Methoxymethoxy-3-(4-trifluoromethyl-phenoxy)-propylsulfanyl]-2-methyl-phenoxy}-acetic acid], the EC50 stood at 70 nM.
Turning to `COCOC(COc1ccc(C(F)(F)F)cc1)CSc1ccc(OCC(=O)O)c(C)c1` (centres unmarked) [Compound 24, {4-[2-Methoxymethoxy-3-(4-trifluoromethyl-phenoxy)-propylsulfanyl]-2-methyl-phenoxy}-acetic acid], the EC50 was 6.3 nM and 6.6 nM (2×) and 5.1 nM and 6.4 nM and 3.7 nM.
As for `CSCOC(COc1ccc(C(F)(F)F)cc1)CSc1ccc(OCC(=O)O)c(C)c1` (centres unmarked) [Compound 25, {2-Methyl-4-[2-methylsulfanylmethoxy-3-(4-trifluoromethyl-phenoxy)-propylsulfanyl]-phenoxy}-acetic acid], the EC50 was 25.2 nM and 8.9 nM and 8.8 nM.
For `Cc1cc(SCC(COc2ccc(C(F)(F)F)cc2)OCC(=O)O)ccc1OCC(=O)O` (centres unmarked) [Compound 26, {4-[2-Carboxymethoxy-3-(4-trifluoromethyl-phenoxy)-propylsulfanyl]-2-methyl-phenoxy}-acetic acid], the 50% effective concentration (EC50) was found to be 126 nM.
As to `Cc1cc(SC[C@@H](COc2ccc(C(F)(F)F)cc2)OCc2ccc(Cl)s2)ccc1OCC(=O)O` [Compound 27, {4-[2-(5-Chloro-thiophen-2-ylmethoxy)-3-(4-trifluoromethyl-phenoxy)-propylsulfanyl]-2-methyl-phenoxy}-acetic acid], the EC50 was 11.9 nM and 18.5 nM.
On to `COc1ccc(OC(COc2ccc(C(F)(F)F)cc2)CSc2ccc(OCC(=O)O)c(C)c2)cc1` (centres unmarked) [Compound 29, {4-[2-(4-Methoxy-phenoxy)-3-(4-trifluoromethyl-phenoxy)-propylsulfanyl]-2-methyl-phenoxy}-acetic acid], for which the midpoint of the response, the EC50, lay at 62.1 nM.
`CCCC(=O)c1ccc(OC(COc2ccc(C(F)(F)F)cc2)CSc2ccc(OCC(=O)O)c(C)c2)cc1` (centres unmarked) [Compound 30, {4-[2-(4-Butyryl-phenoxy)-3-(4-trifluoromethyl-phenoxy)-propylsulfanyl]-2-methyl-phenoxy}-acetic acid] returned an EC50 of 23.9 nM.
On to `Cc1ccc(OCC(O)CSc2ccc(OCC(=O)O)c(C)c2)cc1` (centres unmarked) [Compound 31], for which the EC50 is > 1000 nM.
Compound `CCOC(COc1ccc(C(F)(F)F)cc1)CSc1ccc(CC(=O)O)cc1Cl` (centres unmarked) [Compound 32, {3-Chloro-4-[2-ethoxy-3-(4-trifluoromethyl-phenoxy)-propylsulfanyl]-phenyl}-acetic acid] displayed a concentration giving a half-maximal response (EC50) of 11.2 nM.
The value for `CCOCC(COc1ccc(C(F)(F)F)cc1)CSc1ccc(OCC(=O)O)c(C)c1` (centres unmarked) [Compound 33, {4-[2-Ethoxymethyl-3-(4-trifluoromethyl-phenoxy)-propylsulfanyl]-2-methyl-phenoxy}-acetic acid] was 4.7 nM and 4.6 nM; that for `COCCC(COc1ccc(C(F)(F)F)cc1)CSc1ccc(OCC(=O)O)c(C)c1` (centres unmarked) [Compound 35, {4-[4-Methoxy-2-(4-trifluoromethyl-phenoxymethyl)-butylsulfanyl]-2-methyl-phenoxy}-acetic acid] was 2.3 nM and 4.1 nM.
The value for `CCOC(CC(COc1ccc(C(F)(F)F)cc1)CSc1ccc(OCC(=O)O)c(C)c1)OCC` (centres unmarked) [Compound 36, {4-[4,4-Diethoxy-2-(4-trifluoromethyl-phenoxymethyl)-butylsulfanyl]-2-methyl-phenoxy}-acetic acid] was 52.9 nM; that for `CCOCCC(COc1ccc(C(F)(F)F)cc1)CSc1ccc(OCC(=O)O)c(C)c1` (centres unmarked) [Compound 37, {4-[4-Ethoxy-2-(4-trifluoromethyl-phenoxymethyl)-butylsulfanyl]-2-methyl-phenoxy}-acetic acid] was 1.9 nM and 2.9 nM.
For the compound `CSCOC(CCc1ccc(C(F)(F)F)cc1)CSc1ccc(OCC(=O)O)c(C)c1` (centres unmarked) [Compound 39, {2-Methyl-4-[2-methylsulfanylmethoxy-4-(4-trifluoromethyl-phenyl)-butylsulfanyl]-phenoxy}-acetic Acid], the EC50 is 12.5 nM and 17.9 nM.
As for `Cc1cc(SCC/C=C/c2ccc(C(F)(F)F)cc2)ccc1OCC(=O)O` [Compound 40, {2-Methyl-4-[4-(4-trifluoromethyl-phenyl)-but-3-enylsulfanyl]-phenoxy}-acetic acid], the EC50 is 39.3 nM and 43.7 nM.
On to `Cc1cc(SCC(O)/C=C/c2ccc(C(F)(F)F)cc2)ccc1OCC(=O)O` (centres unmarked) [Compound 41], for which a half-maximal response (EC50) required 144 nM.
The same measure for `CCOC(/C=C/c1ccc(C(F)(F)F)cc1)CSc1ccc(OCC(=O)O)c(C)c1` (centres unmarked) [Compound 42, {4-[2-Ethoxy-4-(4-trifluoromethyl-phenyl)-but-3-enylsulfanyl]-2-methyl-phenoxy}-acetic Acid]: 8 nM and 7.9 nM.

Source of the values: patent US8518997B2, “4-(phenoxyalkyl)thio)-phenoxyacetic acids and analogs” (Janssen Pharmaceutica N.V., priority 2003, dated 2013).
